We go through eight molecules from PubChem BioAssay (NCI).

Molecules are shown by their SMILES.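 Where inhibition never reached the appropriate level, the endpoint shown equals the highest concentration tested. Otherwise, values were interpolated linearly from a five-concentration, 48-hour dose response in 96-well plates. GI50 is the concentration that inhibits growth by half. Definition used: TGI = concentration required for complete inhibition of growth.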 Bounds are passed on as bounds.

Test systems include 786-0 renal; ACHN renal; K-562 leukemia; KM12 colon; MDA-MB-231 breast; OVCAR-4 ovarian; OVCAR-8 ovarian; SK-MEL-5 melanoma; U251 CNS; UACC-62 melanoma.
Common to all, as to assay: NCI-60 cell line screen, 48 h

In the case of `NS(=O)(=O)OC[C@H]1C[C@@H](Nc2ccnc3cc(-c4cccc(SC(F)(F)F)c4)nn23)[C@H](O)[C@@H]1O`, the GI50 with 786-0 renal is 47.2 nM; in the experiment on ACHN renal, 176 nM; with K-562 leukemia it was less than 14 nM; in the experiment on KM12 colon, 99.1 nM; in the experiment with MDA-MB-231 breast, 19.5 nM; in the experiment on OVCAR-4 ovarian, 27.4 nM. For the same molecule, the GI50 in the experiment with OVCAR-8 ovarian is 21.6 nM; with SK-MEL-5 melanoma, 13.3 nM; with U251 CNS, 16 nM; in the experiment on UACC-62 melanoma, 32.5 nM. The TGI with 786-0 renal was 190 nM; in the experiment on ACHN renal, 360 nM; in the experiment on K-562 leukemia, 1230 nM; in the experiment with KM12 colon it was 368 nM; with MDA-MB-231 breast, 86.7 nM; with OVCAR-4 ovarian, 110 nM. The TGI worked out at 68.2 nM in the experiment with OVCAR-8 ovarian, 27.8 nM with SK-MEL-5 melanoma, 33.9 nM in the experiment with U251 CNS and 195 nM in the experiment on UACC-62 melanoma.

With `Nc1nc(/C=C\c2ccc([N+](=O)[O-])s2)nc(N2CCN(c3ccccc3)CC2)n1`, the GI50 in the experiment with 786-0 renal was 24200 nM; in the experiment with ACHN renal it was 19000 nM; in the experiment with K-562 leukemia, 15300 nM; with KM12 colon it was 16600 nM; in the experiment on MDA-MB-231 breast, 13000 nM; in the experiment with OVCAR-4 ovarian, 40600 nM. For the same molecule, the GI50 is 22200 nM in the experiment with OVCAR-8 ovarian, 157 nM with SK-MEL-5 melanoma, 21600 nM in the experiment on U251 CNS and 13600 nM in the experiment on UACC-62 melanoma. The TGI in the experiment on 786-0 renal was 48700 nM; in the experiment on ACHN renal, 41400 nM; with K-562 leukemia it was 49500 nM; in the experiment with KM12 colon, 38700 nM; in the experiment with MDA-MB-231 breast, 29600 nM; with OVCAR-4 ovarian, more than 100000 nM. In addition, the TGI was found to be 52700 nM in the experiment on OVCAR-8 ovarian, 56000 nM in the experiment with U251 CNS and 30800 nM in the experiment on UACC-62 melanoma.

Take `Oc1ccc(C=Nc2ccccc2O)cc1`: the TGI in the experiment on 786-0 renal is 67400 nM; with ACHN renal it was more than 100000 nM; with K-562 leukemia, more than 100000 nM; in the experiment with KM12 colon it was more than 100000 nM; with MDA-MB-231 breast, more than 100000 nM; with OVCAR-4 ovarian, more than 100000 nM. Moreover, the TGI was more than 100000 nM with OVCAR-8 ovarian, 62700 nM with SK-MEL-5 melanoma, more than 100000 nM in the experiment on U251 CNS and more than 100000 nM with UACC-62 melanoma.

Take `COc1cc(/C=C2\CC3C4CC=C5C[C@@H](OC(C)=O)CC[C@]5(C)C4CC[C@]3(C)C2=O)ccc1OCCN1CCCCC1` (some centres undefined): the GI50 in the experiment with 786-0 renal was 1660 nM; in the experiment on ACHN renal, 3640 nM; in the experiment with K-562 leukemia, 1230 nM; with KM12 colon, 1990 nM; in the experiment on MDA-MB-231 breast, 3310 nM; with OVCAR-4 ovarian, 15100 nM. For the same molecule, the GI50 in the experiment with OVCAR-8 ovarian is 4270 nM; with SK-MEL-5 melanoma, 1710 nM; with U251 CNS it was 2410 nM; with UACC-62 melanoma, 1990 nM. Further, the TGI came out at 3100 nM in the experiment with 786-0 renal; 14400 nM with ACHN renal; 3310 nM with K-562 leukemia; 4270 nM in the experiment on KM12 colon; 7890 nM with MDA-MB-231 breast; 49000 nM with OVCAR-4 ovarian. In addition, the TGI in the experiment on OVCAR-8 ovarian is 28200 nM; in the experiment with SK-MEL-5 melanoma it was 3080 nM; in the experiment on U251 CNS, 8260 nM; with UACC-62 melanoma, 3660 nM.

As to `COc1ccc2c(c1)C(=O)c1c-2n(CCCN(C)C)c(=O)c2ccccc12`, the GI50 was 176 nM in the experiment with 786-0 renal; 116 nM with ACHN renal; 287 nM in the experiment on K-562 leukemia; 412 nM in the experiment with KM12 colon; 1860 nM with MDA-MB-231 breast; 808 nM in the experiment with OVCAR-4 ovarian. In addition, the GI50 in the experiment on OVCAR-8 ovarian was 186 nM; in the experiment on SK-MEL-5 melanoma, 123 nM; in the experiment with U251 CNS, 197 nM; in the experiment on UACC-62 melanoma it was 922 nM. For the same molecule, the TGI with 786-0 renal worked out at 2300 nM; in the experiment with ACHN renal, 503 nM; with K-562 leukemia it was 17500 nM; with KM12 colon, 5250 nM; in the experiment on MDA-MB-231 breast, 12900 nM; in the experiment with OVCAR-4 ovarian, 6870 nM. Moreover, the TGI is 11300 nM in the experiment on OVCAR-8 ovarian, 406 nM in the experiment with SK-MEL-5 melanoma, 3680 nM with U251 CNS and 2500 nM with UACC-62 melanoma.

Consider `COc1ccc(C2(Cl)c3ccccc3N(c3ccccc3)c3ccccc32)cc1`, for which the GI50 in the experiment with 786-0 renal is 618 nM; in the experiment on ACHN renal, 598 nM; in the experiment on K-562 leukemia, 335 nM; in the experiment with KM12 colon it was 1180 nM; in the experiment on MDA-MB-231 breast, 759 nM; in the experiment on OVCAR-4 ovarian, 447 nM. The GI50 in the experiment with OVCAR-8 ovarian was 203 nM; with SK-MEL-5 melanoma, 266 nM; in the experiment with U251 CNS, 50.5 nM; in the experiment with UACC-62 melanoma, 191 nM. The TGI turned out to be 2060 nM in the experiment with 786-0 renal; 10100 nM with ACHN renal; 12000 nM in the experiment on K-562 leukemia; 5540 nM in the experiment with KM12 colon; 2540 nM in the experiment on MDA-MB-231 breast; 2810 nM in the experiment with OVCAR-4 ovarian. The TGI with OVCAR-8 ovarian is 2700 nM; in the experiment with SK-MEL-5 melanoma, 1310 nM; in the experiment on U251 CNS, 1290 nM; in the experiment with UACC-62 melanoma, 1400 nM.

Take `Fc1ccc(-c2c(-c3ccncc3)nc3n2CCS3)cc1`: the GI50 with 786-0 renal, with ACHN renal, in the experiment with K-562 leukemia, in the experiment with KM12 colon, in the experiment on MDA-MB-231 breast and with OVCAR-4 ovarian was more than 25000 nM throughout. For the same molecule, the GI50 in the experiment on OVCAR-8 ovarian, with SK-MEL-5 melanoma, with U251 CNS and in the experiment with UACC-62 melanoma was more than 25000 nM each time. In addition, the TGI in the experiment with 786-0 renal, with ACHN renal, with K-562 leukemia, with KM12 colon, in the experiment on MDA-MB-231 breast and in the experiment with OVCAR-4 ovarian was more than 25000 nM throughout. Also, the TGI in the experiment on OVCAR-8 ovarian, in the experiment on SK-MEL-5 melanoma, in the experiment with U251 CNS and in the experiment on UACC-62 melanoma was more than 25000 nM in each case.

On to `Cc1cc2c(C(=O)NC[C@H](C)c3ccccc3)c(O)c(O)cc2c(O)c1-c1c(C)cc2c(C(=O)NC[C@H](C)c3ccccc3)c(O)c(O)cc2c1O`, for which the GI50 in the experiment on 786-0 renal was 368 nM; with ACHN renal, 296 nM; in the experiment with K-562 leukemia, 170 nM; with KM12 colon, 107 nM; in the experiment with MDA-MB-231 breast, 677 nM; in the experiment with OVCAR-4 ovarian, 446 nM. Moreover, the GI50 with OVCAR-8 ovarian is 588 nM; with SK-MEL-5 melanoma, 447 nM; in the experiment with U251 CNS it was 74 nM; with UACC-62 melanoma, 146 nM. In addition, the TGI is 1800 nM with 786-0 renal; 3830 nM in the experiment with ACHN renal; 7690 nM with K-562 leukemia; 2240 nM in the experiment on KM12 colon; 6530 nM in the experiment with MDA-MB-231 breast; 8300 nM with OVCAR-4 ovarian. Also, the TGI with OVCAR-8 ovarian stood at 10100 nM; in the experiment on SK-MEL-5 melanoma, 1470 nM; in the experiment with U251 CNS, 1670 nM; in the experiment on UACC-62 melanoma it was 486 nM.
